Data taken from patent US5830910A (priority 1995, dated 1998).
Like-named read-outs stand apart in the source and are kept apart here.

Columns and labels:
Assay in all cases: cells
Assay type in all cases: cell-based, rat
[1] = system: cultured hippocampal neurons
Text: (§1) Dissociated embryonic rat hippocampal cell cultures were established and maintained. All procedures conformed with the NIH Guide for the Care and Use of Laboratory Animals and were approved by the University of Kentucky Animal Care and Use Committee. Cultures were maintained on a polyethyleneimine-coated substrate in plastic 35-mm dishes or 96 wall plates (for cell survival studies) or glass-bottom 35-mm dishes (for [Ca^2+ ]i imaging studies). The cell density was ^~ 70-100 cells/mm^2. Cells were maintained in Eagle's minimum essential medium supplemented 10% with fetal bovine serum and containing 20 mM sodium pyruvate. […] Aβ25-35 (Bachem, lot ZJ744) and Aβ1-40 (Bachem, lot ZK600) were stored in the lyophilized form, and stocks were prepared immediately before use by dissolving the peptide at a concentration of 1 mM in sterile distilled water. […] Glutamate and colchicine (Sigma) were prepared as 200-500x stocks in saline. Cytochalasins D and E (Sigma) and calcium ionophore 4-bromo-A23187 (Calbiochem) were prepared as 500x stocks in dimethyl sulfoxide. Vitamin E (α-tocopherol; Sigma) was prepared as a 500x stock in ethanol. Nordihydroguaiaretic acid and FeSo4 were prepared as 500x stocks in sterile water.
(§2) Neuronal survival was quantified by counting viable neurons in the same microscope fields (10x objective) immediately before experimental treatment and at time points after treatment. In addition, cells were grown in 96-well plates and Alamar blue fluorescence (Alamar Laboratories)was quantified by using a fluorescence plate reader. Alamar Blue is a non-fluorescent substrate that, after reduction by cell metabolites, becomes fluorescent. Usually neurons that died in the time intervals (20-48 h) between examination points were absent. Viability of the remaining neurons was assessed by morphological criteria. Neutrons with intact neurites of uniform diameter and a soma with a smooth, round appearance were considered viable, whereas neurons with fragmented neurites and a vacuolated or swollen soma were considered nonviable. Survival values were expressed as percentages of the initial number of neurons present before experimental treatment. Statistical comparisons were made using ANOVA and Scheffe post-hoc tests for pairwise comparisons.
FIG. 5. […] Cytochalasin D was added to cultures 30 min prior to exposure to glutamate, and control cultures were exposed to 0.2% dimethylsulfoxide.
(A) Neuronal survival was quantified in cultures that had been pretreated with the indicated concentrations of cytochalasin D and then exposed to 50 μM glutamate for 20 h. Values represent the means and SEM of determinations made in four separate cultures. […] Pairwise statistical comparisons of cytochalasin-treated cultures with the control survival (Scheffe's test) indicated 1 nM cytochalasin D, P<0.05; 10 nM cytochalasin D, P<0.001; 100 and 1000 nM cytochalasin D, P<0.0001.
(B) Neuronal survival was quantified in cultures that had been pretreated with either vehicle (control) or 100 nM cytochalasin D and then exposed to the indicated concentrations of glutamate for 20 h. Values represent the means and SEM of determinations made in four separate cultures. […] ANOVA with Scheffe's post hoc test.
FIG. 6. (A) Cultures were pretreated with 100 nM cytochalasin D (CyD), 100 nM cytochalasin E (CyE), or 100 nM colchicine (Colch). Cultures were then exposed to 50 μM glutamate for 20 h. Values for neuronal survival represent the means and SEM of determinations made in four separate cultures. *P<0.001 compared to control value. **P<0.001 compared to value for cultures exposed to glutamate alone.
[…] Values represent the means and SEM of determinations made in four separate cultures. *P<0.01 compared to value for cultures exposed to 20 μM glutamate alone. **P<0.05 compared to cultures exposed to 50 μM glutamate alone.

[2] = system: cultured hippocampal neurons; details: for viability at 0.1 µM: Rattus norvegicus, Hippocampal neuron
Text: as §1, §2
Values represent the means and SEM of 4 separate cultures (cell counts) or 4 culture wells (Alamar blue assay). ^a p<0.05 compared to control value. ^b p<0.001 compound to control value. ^c p<0.01 compared to value for glutamate-treated cultures. ^d p<0.005 compared to value for glutamate-treated cultures. ^e p<0.001 compared to value for Aβ-treated cultures. ^f p<0.001 compared to value for cultures treated with 20 μM glutamate. ^g p<0.001 compared to cultures treated with 50 μM Aβ+20 μM glutamate. n.d. not determined.

[3] = system: cultured hippocampal neurons; details: pretreated 1 hr; 100 μM glutamate, 24 hr
[4] = 100 μM Glutamate + 10 nM substance
[5] = 100 μM Glutamate + 100 nM substance

## COc1cc2c(c(OC)c1OC)-c1ccc(OC)c(=O)cc1[C@@H](NC(C)=O)CC2 [Colchicine, colchicine, reference compound]
[1]; 100 nM, 50 μM glutamate, 20 h
  protection against glutamate toxicity: did not protect neurons against glutamate toxicity
[2]; 100 nM, alone
  effect on neuronal survival, alone: reduced survival
[2]; 100 nM, alone, read-out: Neuron Survival (% of control), Alamar Blue Assay
  viability at 0.1 µM: 40 ± 5.2%
[2]; 50 μM Aβ + 100 nM substance, read-out: Neuron Survival (% of control), Alamar Blue Assay
  viability at 0.1 µM: 23 ± 2.8%
[2]; 100 μM Glutamate + 100 nM substance, read-out: Neuron Survival (% of control), Alamar Blue Assay
  viability at 0.1 µM: 12 ± 2.2%
[2]; read-out: Neuron Survival (% of control), Cell Counts, 100 nM, alone
  viability at 0.1 µM: 85 ± 1.9%
[3]
  effect on glutamate neurotoxicity: ineffective

## C=C1[C@@H](C)[C@H]2[C@H](Cc3ccccc3)NC(=O)[C@]23[C@H](OC(C)=O)/C=C/[C@@](C)(O)C(=O)[C@@H](C)C/C=C/[C@H]3[C@@H]1O [Cytochalasin D, cytochalasin D]
[1]; 100 nM pretreatment, 10 μM (P<0.05), 50 μM (P<0.001), 100 μM (P<0.02) glutamate, 20 h
  neuronal survival upon exposure to glutamate: significantly greater
[1]; 100 nM pretreatment, 50 μM glutamate, 20 h
  neurons killed upon exposure to glutamate: < 10%
[1]; 10-100 nM alone, 20-h exposure
  effect on neuronal survival, alone: no significant effect on neuronal survival
[2]; 10 nM, alone
  Neuron Survival (% of control), Alamar Blue Assay: 97 ± 7.8 % of control
  Neuron Survival (% of control), Cell Counts: 89 ± 2.4 % of control
[2]; 100 nM, alone
  Neuron Survival (% of control), Alamar Blue Assay: 91 ± 5.9 % of control
  Neuron Survival (% of control), Cell Counts: 87 ± 2.2 % of control
[2]; 50 μM Aβ + 10 nM substance
  Neuron Survival (% of control), Alamar Blue Assay: 55 ± 2.5 % of control
[2]; 50 μM Aβ + 100 nM substance
  Neuron Survival (% of control), Alamar Blue Assay: 74 ± 1.3 % of control
[2]; 50 μM Aβ + 20 μM Glut with 100 nM substance
  Neuron Survival (% of control), Alamar Blue Assay: 63 ± 2.5 % of control
[2]; [4]
  Neuron Survival (% of control), Alamar Blue Assay: 43 ± 6.7 % of control
  Neuron Survival (% of control), Cell Counts: 54 ± 7.4 % of control
[2]; [5]
  Neuron Survival (% of control), Alamar Blue Assay: 42 ± 4.2 % of control
  Neuron Survival (% of control), Cell Counts: 45 ± 9.8 % of control
[2]; 1-100 nM, alone
  effect on neuronal survival, alone: no significant effect on neuronal survival
[3]
  effect on glutamate neurotoxicity: significantly attenuated
